21 compounds from patent publication US12466804B2 (BRISTOL-MYERS SQUIBB COMPANY, priority 2019, dated 2025) can be followed below.

The target of one assay is T1, human LPA1 (Homo sapiens, UniProt Q92633).
T1 construct: expressed in transfected cells; host or cells: Chinese hamster ovary (CHO) cells
T1 sequence (Q92633 whole entry): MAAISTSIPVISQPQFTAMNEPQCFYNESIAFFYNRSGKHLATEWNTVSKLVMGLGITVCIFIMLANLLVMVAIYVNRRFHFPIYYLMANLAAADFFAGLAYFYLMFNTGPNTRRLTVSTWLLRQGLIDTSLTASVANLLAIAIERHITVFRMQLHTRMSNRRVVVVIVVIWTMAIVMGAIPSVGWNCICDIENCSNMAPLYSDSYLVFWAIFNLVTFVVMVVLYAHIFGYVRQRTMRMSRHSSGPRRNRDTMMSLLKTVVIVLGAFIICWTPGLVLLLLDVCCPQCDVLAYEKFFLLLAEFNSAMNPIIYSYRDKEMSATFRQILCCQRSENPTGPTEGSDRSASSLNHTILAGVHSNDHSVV
Description: LPA1 functional antagonist assay (LPA-induced calcium flux). In kind it is cell-based.
Conditions: not given
Here is the method: The effectiveness of compounds of the present invention as LPA1 inhibitors can be determined in an LPA1 functional antagonist assay as follows:
The cells were then equilibrated to room temperature for 30 minutes before the assay. […] IC50 values were determined by fitting data to a 4-parameter logistic equation (GraphPad Prism, San Diego CA).
A general note: Calcium flux is commonly read through the fluorescence of an indicator in the cells.
Consider `CN(CC1CCC1)C(=O)OCc1c(-c2ccc(OCC34CC(C(=O)O)(C3)C4)cn2)nnn1C` [Example 54, 3-(((6-(5-((((cyclobutylmethyl)(methyl)carbamoyl)oxy)methyl)-1-methyl-1H-1,2,3-triazol-4-yl)pyridin-3-yl)oxy)methyl)bicyclo[1.1.1]pentane-1-carboxylic acid], for which the IC50 (usually the concentration needed to halve the response being measured) turned out to be 427 nM.

The assay is the same for the next values; noted with them: CHO cells overexpressing human LPA1; calcium flux induced by 10 nM LPA; read-out: hLPA1 IC50.
Take `CCc1ccnc(OCc2c(-c3ccc(OC[C@@H]4CC[C@H]4C(=O)O)c(C)n3)nnn2C)n1` (racemic) [Example 14, (±)-(1R,2R)-2-(((6-(5-(((4-ethylpyrimidin-2-yl)oxy)methyl)-1-methyl-1H-1,2,3-triazol-4-yl)-2-methylpyridin-3-yl)oxy)methyl)cyclobutane-1-carboxylic acid]: the IC50 came to 382 nM.

As for `Cc1nc(-c2nnn(C)c2CNc2noc(CCC(C)C)n2)ccc1OCC12CC(C(=O)O)(C1)C2` [Example 55, 3-(((6-(5-(((5-isopentyl-1,2,4-oxadiazol-3-yl)amino)methyl)-1-methyl-1H-1,2,3-triazol-4-yl)-2-methylpyridin-3-yl)oxy)methyl)bicyclo[1.1.1]pentane-1-carboxylic acid], the IC50 was 1980 nM.

Turning to `Cc1nc(-c2nnn(C)c2COC(=O)N(C)CC2CCC2)ccc1O[C@H]1C[C@@H](C(=O)O)C1` [Example 10, cis-3-((6-(5-((((cyclobutylmethyl)(methyl)carbamoyl)oxy)methyl)-1-methyl-1H-1,2,3-triazol-4-yl)-2-methylpyridin-3-yl)oxy)cyclobutane-1-carboxylic acid], the IC50 came to 789 nM.

For `Cc1nc(-c2nnn(C)c2COC(=O)N(C)CC2CCC2)ccc1OCC12CC(C(=O)O)(C1)C2` [Example 52, 3-(((6-(5-((((cyclobutylmethyl)(methyl)carbamoyl)oxy)methyl)-1-methyl-1H-1,2,3-triazol-4-yl)-2-methylpyridin-3-yl)oxy)methyl)bicyclo[1.1.1]pentane-1-carboxylic acid], the IC50 is 372 nM.

In the case of `Cc1nc(-c2nnn(C)c2CNc2nccc(-c3ccccn3)n2)ccc1OC[C@@H]1CC[C@H]1C(=O)O` (racemic) [Example 26, (±)-(1R,2R)-2-(((2-methyl-6-(1-methyl-5-(((4-(pyridin-2-yl)pyrimidin-2-yl)amino)methyl)-1H-1,2,3-triazol-4-yl)pyridin-3-yl)oxy)methyl)cyclobutane-1-carboxylic acid], the IC50 was 56 nM.

For `Cc1nc(-c2nnn(C)c2CNc2nccc(C(C)C)n2)ccc1OC[C@@H]1CC[C@H]1C(=O)O` (single isomer, unassigned) [Example 24], the IC50 stood at 1150 nM.

Consider `Cc1nc(-c2nnn(C)c2COC(=O)N(C)CC2CC2)ccc1OC[C@@H]1CC[C@H]1C(=O)O` (racemic) [Example 31, (±)-(1R,2R)-2-(((6-(5-((((Cyclopropylmethyl)(methyl)carbamoyl)oxy)methyl)-1-methyl-1H-1,2,3-triazol-4-yl)-2-methylpyridin-3-yl)oxy)methyl) cyclobutanecarboxylic acid], for which the IC50 was found to be 184 nM.

For `CCC(C)Cc1nc(NCc2c(-c3ccc(OCC45CC(C(=O)O)(C4)C5)c(C)n3)nnn2C)no1` (racemic) [Example 56, (±)-3-(((2-methyl-6-(1-methyl-5-(((5-(2-methylbutyl)-1,2,4-oxadiazol-3-yl)amino)methyl)-1H-1,2,3-triazol-4-yl)pyridin-3-yl)oxy)methyl)bicyclo[1.1.1]pentane-1-carboxylic acid], the IC50 was found to be 586 nM.

`Cc1nc(-c2nnn(C)c2Cn2nnc(CC3CC3)n2)ccc1OC[C@H]1CC[C@@H]1C(=O)O` (single isomer, unassigned) [Example 39]: the IC50 came out at 250 nM.

On to `Cc1nc(-c2onc(C)c2COC(=O)N(C)C2CCCC2)ccc1OCC12CCC(C(=O)O)(C1)C2` [Example 58, 4-(((6-(4-(((cyclopentyl(methyl)carbamoyl)oxy)methyl)-3-methylisoxazol-5-yl)-2-methylpyridin-3-yl)oxy)methyl)bicyclo[2.1.1]hexane-1-carboxylic acid], for which the IC50 worked out at 22 nM.

Take `Cn1nnc(-c2ccc(OC[C@@H]3CC[C@H]3C(=O)O)cn2)c1CNc1nccc(-c2ccccn2)n1` (racemic) [Example 27, (±)-(1R,2R)-2-(((6-(1-methyl-5-(((4-(pyridin-2-yl)pyrimidin-2-yl)amino)methyl)-1H-1,2,3-triazol-4-yl)pyridin-3-yl)oxy)methyl)cyclobutane-1-carboxylic acid]: the IC50 amounted to 49 nM.

`Cc1nc(-c2nnn(C)c2COc2noc(C(C)C)n2)ccc1OC[C@@H]1CC[C@H]1C(=O)O` (racemic) [Example 16, (±)-(1R,2R)-2-(((6-(5-(((5-isopropyl-1,2,4-oxadiazol-3-yl)oxy)methyl)-1-methyl-1H-1,2,3-triazol-4-yl)-2-methylpyridin-3-yl)oxy)methyl)cyclobutane-1-carboxylic acid]: the IC50 turned out to be 25 nM.

As for `Cc1noc(-c2ccc(OC[C@@H]3CC[C@H]3C(=O)O)cn2)c1CNc1nccc(-c2ccccn2)n1` (single isomer, unassigned) [Example 3], the IC50 is 7 nM.

Take `CCCCOC(=O)NCc1c(-c2ccc(OC[C@@H]3CC[C@H]3C(=O)O)c(C)n2)nnn1C` (racemic) [Example 42, (±)-(1R,2R)-2-(((6-(5-(((butoxy-carbonyl)amino)methyl)-1-methyl-1H-1,2,3-triazol-4-yl)-2-methyl-pyridin-3-yl)oxy)methyl)cyclobutanecarboxylic acid]: the IC50 came out at 649 nM.

As to `Cn1nnc(-c2ccc(OC[C@@H]3CC[C@H]3C(=O)O)cn2)c1CNc1nccc(-c2ccccn2)n1` (single isomer, unassigned) [Example 28], the IC50 was determined as 67 nM.

Consider `Cc1nc(-c2nnn(C)c2Cn2nnc(CC3CC3)n2)ccc1OC[C@@H]1CC[C@H]1C(=O)O` (racemic) [Example 36, (±)-(1R,2R)-2-(((6-(5-((5-(Cyclopropylmethyl)-2H-tetrazol-2-yl)methyl)-1-methyl-1H-1,2,3-triazol-4-yl)-2-methylpyridin-3-yl)oxy)methyl)cyclobutane-1-carboxylic acid], for which the IC50 is 86 nM.

Consider `Cc1nc(-c2nnn(C)c2CNC(=O)OCc2ccccc2)ccc1OC[C@@H]1CC[C@H]1C(=O)O` (racemic) [Example 32, (±)-(1R,2R)-2-(((6-(5-((((Benzyloxy)carbonyl)amino)methyl)-1-methyl-1H-1,2,3-triazol-4-yl)-2-methylpyridin-3-yl)oxy)methyl)cyclobutanecarboxylic acid], for which the IC50 came out at 70 nM.

Consider `CCCN(C)C(=O)OCc1c(-c2ccc(OC[C@@H]3CC[C@H]3C(=O)O)c(C)n2)nnn1C` (racemic) [Example 46], for which the IC50 came to 275 nM.

Take `Cc1nc(-c2nnn(C)c2COC(=O)N(C)CC2CCC2)ccc1OC[C@H]1CC[C@@H]1C(=O)O` (single isomer, unassigned) [Example 8]: the IC50 is 6 nM.

On to `CCCCN(C)C(=O)OCc1c(-c2ccc(OC[C@@H]3CC[C@H]3C(=O)O)c(C)n2)nnn1C` (racemic) [Example 50, (±)-(1R,2R)-2-(((6-(5-(((butyl(methyl)carbamoyl)oxy)methyl)-1-methyl-1H-1,2,3-triazol-4-yl)-2-methylpyridin-3-yl)oxy)methyl)cyclobutanecarboxylic acid], for which the IC50 was 22 nM.
